Literature values, collected in patent publication US8759404B2, “Intravenous propofol emulsion compositions having preservative efficacy” (Bharat Serums & Vaccines Ltd., priority 2005, dated 2014).

Structure (SMILES)	Oral LD50 in rats (rats; oral)	LD50 (rats; administered orally)	solubility in aqueous media (aqueous media)	solubility in fat solvents (chloroform, benzene, ethanol, or acetone)
CCCCCCCCCC(=O)O [Capric acid, Decanoic acid]	more than 10,000 mg/kg	–	–	–
CCCCCCCCCCCC(=O)OCC(O)CO (stereo not shown) [Monolaurin, monoglyceryl ester of lauric acid]	–	about 53,000 mg/kg body weight	insoluble	highly soluble
